Details: 303.15 K, Liquid, Vibrating tube method

FC(C(F)(F)F)C(F)(F)F [1,1,1,2,3,3,3-heptafluoropropane]
Details | mass density [kg/m3]
23528 kPa | 1493.1
23717 kPa | 1493.9
23749 kPa | 1494.1
23780 kPa | 1494.1
23812 kPa | 1494.2
23848 kPa | 1494.4
23884 kPa | 1494.5
23911 kPa | 1494.7
23938 kPa | 1494.6
23969 kPa | 1494.8
24001 kPa | 1494.9
24032 kPa | 1495.2
24063 kPa | 1495.2
24107 kPa | 1495.5
24143 kPa | 1495.5
24178 kPa | 1495.8
24209 kPa | 1495.8
24240 kPa | 1495.8
24271 kPa | 1496.1
24303 kPa | 1496.1
24338 kPa | 1496.2
24370 kPa | 1496.4
24397 kPa | 1496.4
24429 kPa | 1496.6
24461 kPa | 1496.8
24496 kPa | 1496.7
24528 kPa | 1497
24559 kPa | 1497.1
24590 kPa | 1497.1
24626 kPa | 1497.4
24654 kPa | 1497.4
24682 kPa | 1497.4
24714 kPa | 1497.6
24750 kPa | 1497.8
24778 kPa | 1497.8
24809 kPa | 1497.9
24844 kPa | 1498.2
24868 kPa | 1498.2
24901 kPa | 1498.4
24928 kPa | 1498.3
24952 kPa | 1498.5
24987 kPa | 1498.7
25022 kPa | 1498.7
25049 kPa | 1498.9
25077 kPa | 1498.9
25110 kPa | 1499.1
25135 kPa | 1499.1
25167 kPa | 1499.3
25195 kPa | 1499.1
25223 kPa | 1499.5
25247 kPa | 1499.5
25287 kPa | 1499.7
25310 kPa | 1499.8
25346 kPa | 1499.9
25370 kPa | 1499.9
25411 kPa | 1500.1
25443 kPa | 1500.1
25467 kPa | 1500.4
25503 kPa | 1500.4
25528 kPa | 1500.5
25561 kPa | 1500.7
25602 kPa | 1500.8
25630 kPa | 1501
25658 kPa | 1501.1
25686 kPa | 1501
25715 kPa | 1501.2
25740 kPa | 1501.3
25774 kPa | 1501.4
25801 kPa | 1501.6
25837 kPa | 1501.5
25858 kPa | 1501.5
25891 kPa | 1501.9
25911 kPa | 1501.9
25944 kPa | 1502
25972 kPa | 1502.1
26000 kPa | 1502.2
26025 kPa | 1502.4
26056 kPa | 1502.4
26076 kPa | 1502.6
26109 kPa | 1502.6
26134 kPa | 1502.8
26158 kPa | 1502.9
26191 kPa | 1502.9
26216 kPa | 1502.9
26252 kPa | 1503
26284 kPa | 1503.3
26307 kPa | 1503.3
26336 kPa | 1503.4
26361 kPa | 1503.5
26394 kPa | 1503.6
26418 kPa | 1503.8
26512 kPa | 1503.9
26545 kPa | 1504.1
26714 kPa | 1504.6
26743 kPa | 1504.8
26776 kPa | 1504.9
26801 kPa | 1505.1
26834 kPa | 1505.2
26858 kPa | 1505.2
26891 kPa | 1505.3
26924 kPa | 1505.5
26948 kPa | 1505.5
26981 kPa | 1505.7
27006 kPa | 1505.7
27035 kPa | 1505.9
27060 kPa | 1506
27246 kPa | 1506.5
27275 kPa | 1506.7
27304 kPa | 1506.8
27334 kPa | 1506.8
27368 kPa | 1507.1
27464 kPa | 1507.4
28427 kPa | 1510.7
28456 kPa | 1510.8
28486 kPa | 1510.9
28516 kPa | 1510.9
28541 kPa | 1511.1
28576 kPa | 1511.2
28601 kPa | 1511.3
28636 kPa | 1511.4
28661 kPa | 1511.3
28700 kPa | 1511.5
28729 kPa | 1511.7
28768 kPa | 1511.7
28793 kPa | 1511.8
28832 kPa | 1512
28858 kPa | 1512.2
28893 kPa | 1512.3
28924 kPa | 1512.3
28967 kPa | 1512.6
28997 kPa | 1512.6
29020 kPa | 1512.7
29047 kPa | 1512.7
29074 kPa | 1512.8
29113 kPa | 1513
29139 kPa | 1513
29169 kPa | 1513
29196 kPa | 1513.3
29235 kPa | 1513.4
29267 kPa | 1513.4
29298 kPa | 1513.6
29323 kPa | 1513.6
29349 kPa | 1513.7
29389 kPa | 1513.9
29429 kPa | 1514.1
29461 kPa | 1514.1
29492 kPa | 1514.2
29527 kPa | 1514.4
29554 kPa | 1514.5
29584 kPa | 1514.6
29614 kPa | 1514.7
29645 kPa | 1514.6
29676 kPa | 1514.8
29706 kPa | 1515
29746 kPa | 1515
29773 kPa | 1515.3
29800 kPa | 1515.3
29831 kPa | 1515.3
29866 kPa | 1515.5
29892 kPa | 1515.6
29927 kPa | 1515.6
29953 kPa | 1515.7
29984 kPa | 1515.8
30015 kPa | 1516
30043 kPa | 1516.2
30079 kPa | 1516.2
30110 kPa | 1516.3
30145 kPa | 1516.4
30176 kPa | 1516.5
30211 kPa | 1516.5
30247 kPa | 1516.7
30277 kPa | 1516.8
30316 kPa | 1516.9
30341 kPa | 1516.9
30376 kPa | 1517.1
30406 kPa | 1517.2
30437 kPa | 1517.3
30464 kPa | 1517.4
30502 kPa | 1517.5
30529 kPa | 1517.6
30561 kPa | 1517.7
30597 kPa | 1517.8
30619 kPa | 1518
30655 kPa | 1518.1
30678 kPa | 1518.1
30713 kPa | 1518.1
30735 kPa | 1518.4
30769 kPa | 1518.4
30805 kPa | 1518.6
30842 kPa | 1518.6
30873 kPa | 1518.8
30910 kPa | 1518.8
30945 kPa | 1518.9
30977 kPa | 1519.1
31009 kPa | 1519
31044 kPa | 1519.2
31076 kPa | 1519.4
31117 kPa | 1519.6
31149 kPa | 1519.7
31186 kPa | 1519.7
31223 kPa | 1519.8
31256 kPa | 1519.8
31292 kPa | 1519.9
31319 kPa | 1520.1
31351 kPa | 1520.3

Source: the NIST ThermoML archive (doi:10.1021/je700260f)
